Measured values as given in ChEMBL document CHEMBL1201862, “PubChem BioAssay data set” (2004).
Values joined by “and” are separate entries in the source; they are usually repeats but may differ in a detail not shown here. Equal values may be shown once.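 Where inhibition never reached the appropriate level, the endpoint shown equals the highest concentration tested. Otherwise, values were interpolated linearly from a five-concentration, 48-hour dose response in 96-well plates. The concentration for 50% growth inhibition is given as GI50.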 Active and inactive are the calls of the source. No stated cut-off is given here; in the data, active = GI50 up to about 1.1 µM and inactive = higher.

Key:
Assay in all cases: NCI anticancer screen, dose series, 48 h
[1] = system: SW-620
[2] = system: NCI-H522
[3] = system: HCT-116
[4] = system: MOLT-4
[5] = system: EKVX
[6] = system: KM12
[7] = system: OVCAR-5
[8] = system: OVCAR-8
[9] = system: RPMI-8226
[10] = system: UACC-257
[11] = system: SK-MEL-2
[12] = system: CAKI-1
[13] = system: A549
[14] = system: MCF7
[15] = system: TK-10
[16] = system: NCI-H226
[17] = system: M14
[18] = system: T47D
[19] = system: SK-MEL-28
[20] = system: Hs-578T

SMILES | GI50 [1] | GI50 [2] | GI50 [3] | GI50 [4] | GI50 [5] | GI50 [6] | GI50 [7] | GI50 [8] | GI50 [9] | GI50 [10] | GI50 [11] | GI50 [12] | GI50 [13] | GI50 [14] | GI50 [15] | GI50 [16] | GI50 [17] | GI50 [18] | GI50 [19] | GI50 [20]
CCN(CC)Cc1cc(Nc2c3ccccc3nc3c4ccccc4n(C)c23)cc(CN(CC)CC)c1O | 3.12 µM (inactive) | 1.75 µM (inactive) | 2.89 µM (inactive) | 1.63 µM (inactive) | 4.59 µM (inactive) | 6.58 µM (inactive) | 6.84 µM (inactive) | 4.39 µM (inactive) | 2.1 µM (inactive) | 2.73 µM (inactive) | 2.67 µM (inactive) | 13.5 µM (inactive) | 8.43 µM (inactive) | 3.61 µM (inactive) | 10.9 µM (inactive) | 11.2 µM (inactive) | 1.76 µM (inactive) | 3.18 µM (inactive) | 2.37 µM (inactive) | 6.22 µM (inactive)
CC1(C)OCC(C2OC(On3nnc4ccc(Cl)cc43)C3OC(C)(C)OC23)O1 (stereo not given) | > 100 µM (inactive) | > 100 µM (inactive) | > 100 µM (inactive) | > 100 µM (inactive) | > 100 µM (inactive) | > 100 µM (inactive) | > 100 µM (inactive) | > 100 µM (inactive) | > 100 µM (inactive) | > 100 µM (inactive) | > 100 µM (inactive) | > 100 µM (inactive) | > 100 µM (inactive) | > 100 µM (inactive) | > 100 µM (inactive) | 66.1 µM (inactive) | > 100 µM (inactive) | > 100 µM (inactive) | > 100 µM (inactive) | > 100 µM (inactive)
COC1CC(OC2OC(CO)C(O)C(O)C2O)/C(=C\C#N)C(O)C1OC (stereo not given) | > 100 µM (inactive) | > 100 µM (inactive) | > 100 µM (inactive) | > 100 µM (inactive) | > 100 µM (inactive) | > 100 µM (inactive) | > 100 µM (inactive) | > 100 µM (inactive) | > 100 µM (inactive) | > 100 µM (inactive) | > 100 µM (inactive) | > 100 µM (inactive) | > 100 µM (inactive) | > 100 µM (inactive) | > 100 µM (inactive) | > 100 µM (inactive) | > 100 µM (inactive) | > 100 µM (inactive) | > 100 µM (inactive) | > 100 µM (inactive)
CCc1c(CNC2=NCCN2)c(CC)c(CNC2=NCCN2)c(CC)c1CNC1=NCCN1 | > 100 µM (inactive) | > 100 µM (inactive) | > 100 µM (inactive) | > 100 µM (inactive) | > 100 µM (inactive) | > 100 µM (inactive) | > 100 µM (inactive) | > 100 µM (inactive) | > 100 µM (inactive) | > 100 µM (inactive) | > 100 µM (inactive) | > 100 µM (inactive) | > 100 µM (inactive) | > 100 µM (inactive) | > 100 µM (inactive) | > 100 µM (inactive) | > 100 µM (inactive) | > 100 µM (inactive) | > 100 µM (inactive) | > 100 µM (inactive)
Nc1ncnc2c1ncn2C1OC(CO)C2OC21 (stereo not given) | > 100 µM (inactive) | > 100 µM (inactive) | > 100 µM (inactive) | > 100 µM (inactive) | > 100 µM (inactive) | > 100 µM (inactive) | > 100 µM (inactive) | > 100 µM (inactive) | > 100 µM (inactive) | > 100 µM (inactive) | > 100 µM (inactive) | > 100 µM (inactive) | > 100 µM (inactive) | > 100 µM (inactive) | > 100 µM (inactive) | > 100 µM (inactive) | > 10 µM (inactive) | > 100 µM (inactive) | > 100 µM (inactive) | > 100 µM (inactive)
CC(C)(C)OC(=O)NCCCNC1(c2cc3ccccc3s2)CCCCC1 | 15.5 µM (inactive) | 14.2 µM (inactive) | 12 µM (inactive) | 12.5 µM (inactive) | 14 µM (inactive) | 17 µM (inactive) | 13.7 µM (inactive) | 17.2 µM (inactive) | 3.84 µM (inactive) | 15.8 µM (inactive) | 17.5 µM (inactive) | 13.6 µM (inactive) | 12.6 µM (inactive) | 15.9 µM (inactive) | 16.6 µM (inactive) | 29 µM (inactive) | 12 µM (inactive) | 16.7 µM (inactive) | 14.9 µM (inactive) | 19.4 µM (inactive)
COc1ccc2c(c1OC)CN1CCc3cc4c(cc3C1C2)OCO4 (stereo not given) [TETRAHYDROBERBERINE] | > 100 µM (inactive) | > 100 µM (inactive) | > 100 µM (inactive) | > 100 µM (inactive) | > 100 µM (inactive) | > 100 µM (inactive) | > 100 µM (inactive) | > 100 µM (inactive) | > 100 µM (inactive) | > 100 µM (inactive) | > 100 µM (inactive) | > 100 µM (inactive) | > 100 µM (inactive) | > 100 µM (inactive) | > 100 µM (inactive) | > 100 µM (inactive) and 68.7 µM (inactive) | > 100 µM (inactive) | > 100 µM (inactive) | > 100 µM (inactive) | > 100 µM (inactive)
COCC(/N=C\N1CCCc2ccccc2[C@@H]1CCCCl)C(C)(C)C (stereo not given in full) | 13 µM (inactive) | 0.557 µM (active) | 1.23 µM (inactive) | 1.71 µM (inactive) | 17.5 µM (inactive) | 4.24 µM (inactive) | 13.6 µM (inactive) | 15.5 µM (inactive) | 2.67 µM (inactive) | 0.798 µM (active) | 17.1 µM (inactive) | 1.58 µM (inactive) | 13.4 µM (inactive) | 0.351 µM (active) | 9.93 µM (inactive) | 5.28 µM (inactive) | 4.55 µM (inactive) | 21.2 µM (inactive) | > 100 µM (inactive) | 0.0184 µM (active)
O=C(Nc1cccc2nsnc12)c1cc2c(cc1Cl)Sc1nccn1S2(=O)=O | 10.5 µM (inactive) | 8.2 µM (inactive) | 2.77 µM (inactive) | 2.95 µM (inactive) | 5.22 µM (inactive) | 2.08 µM (inactive) | 32.4 µM (inactive) | 2.73 µM (inactive) | 2.26 µM (inactive) | 1.81 µM (inactive) | 11.2 µM (inactive) | 9.55 µM (inactive) | 17.3 µM (inactive) | 1.73 µM (inactive) | 6.01 µM (inactive) | 25.9 µM (inactive) | 18.9 µM (inactive) | 2.24 µM (inactive) | 3.01 µM (inactive) | 4.25 µM (inactive)
CC(=O)N(CN1C(=O)CCC1C(=O)O)c1cccc(O)c1 (stereo not given) | > 100 µM (inactive) | > 100 µM (inactive) | > 100 µM (inactive) | > 100 µM (inactive) | > 100 µM (inactive) | > 100 µM (inactive) | > 100 µM (inactive) | > 100 µM (inactive) | > 100 µM (inactive) | > 100 µM (inactive) | > 100 µM (inactive) | > 100 µM (inactive) | > 100 µM (inactive) | > 100 µM (inactive) | > 100 µM (inactive) | > 100 µM (inactive) | > 100 µM (inactive) | > 100 µM (inactive) | > 100 µM (inactive) | > 100 µM (inactive)
CCCCNc1c(CN)cnc2cc(Cl)ccc12 | 16.3 µM (inactive) | 18.8 µM (inactive) | 15 µM (inactive) | 17 µM (inactive) | 3.79 µM (inactive) | 15.5 µM (inactive) | 16.6 µM (inactive) | 18.2 µM (inactive) | 16.4 µM (inactive) | 13 µM (inactive) | 17.8 µM (inactive) | 21.1 µM (inactive) | 20.5 µM (inactive) | 14.5 µM (inactive) | 15 µM (inactive) | 16.1 µM (inactive) | 20 µM (inactive) | 19.2 µM (inactive) | 15.6 µM (inactive) | 17.6 µM (inactive)
O=C1NC(=O)C(F)(n2cc(F)c(=O)[nH]c2=O)C(O)N1 (stereo not given) | > 10 µM (inactive) | > 10 µM (inactive) | > 10 µM (inactive) | > 10 µM (inactive) | > 10 µM (inactive) | > 10 µM (inactive) | > 10 µM (inactive) | > 10 µM (inactive) | > 10 µM (inactive) | > 10 µM (inactive) | > 10 µM (inactive) | > 10 µM (inactive) | > 10 µM (inactive) | > 10 µM (inactive) | > 10 µM (inactive) | > 10 µM (inactive) | > 10 µM (inactive) | > 10 µM (inactive) | > 10 µM (inactive) | > 10 µM (inactive)
Nc1nc(SCC(=O)c2ccccc2)nc2nc3c(c(-c4ccccc4)c12)CCCC3 | > 10 µM (inactive) | 31.2 µM (inactive) | 30.5 µM (inactive) | > 100 µM (inactive) | 63.4 µM (inactive) | 22.4 µM (inactive) | 52 µM (inactive) | 27.2 µM (inactive) | > 100 µM (inactive) | 35 µM (inactive) | 27.9 µM (inactive) | 15.3 µM (inactive) | 45.1 µM (inactive) | 47.8 µM (inactive) | > 100 µM (inactive) | 18.1 µM (inactive) | 19.2 µM (inactive) | 40.3 µM (inactive) | 21.9 µM (inactive) | 19.1 µM (inactive)
CSc1c(C(=O)Nc2ccc(C)cc2)c(N)n(N)c(=O)c1C#N | > 100 µM (inactive) | > 100 µM (inactive) | > 100 µM (inactive) | > 100 µM (inactive) | > 100 µM (inactive) | > 100 µM (inactive) | > 100 µM (inactive) | > 100 µM (inactive) | > 100 µM (inactive) | > 100 µM (inactive) | > 100 µM (inactive) | > 100 µM (inactive) | > 100 µM (inactive) | > 100 µM (inactive) | > 100 µM (inactive) | > 100 µM (inactive) | > 100 µM (inactive) | > 100 µM (inactive) | > 100 µM (inactive) | > 100 µM (inactive)
